The values that follow are results of earlier work, collected in patent US20090047371A1, “PHARMACEUTICAL COMPOSITION COMPRISING CURCUMIN AND RESVERATROL AND USES THEREOF IN MEDICAL FIELD” (SAFI INVESTMENT HOLDING AG, priority 2005, published 2009).

This series relates to hair loss. The following applies: many cases in India and in Europe where Curcumin has been employed.

`COc1cc(/C=C/C(=O)CC(=O)/C=C/c2ccc(O)c(OC)c2)ccc1O` [Curcumin, curcumin]: the effect on hair entry was “any effect on hair has never been reported”.
